Test results from US20040122209A1, “Products for regulating the degradation of collagen and methods for identifying same” (Shriners Hospital For Children, priority 2002, published 2004).

Key:
Format in all cases: cell-based
MMP-13 = assay: ELISA for MMP-13 in conditioned medium of human chondrocytes; conditions: 48 hours; CB12-II 50 μM, TNF-α 50 ng/ml
Protocol: First-passaged normal human chondrocytes isolated by the method described above and cultured at high density (2×10^5 cells/cm^2) were trypsinized and resuspended in Medium A containing 1% FCS at a density of 10^6 cells/ml. Then, 200 μl of the cell suspension was each plated onto round-bottomed 96-well culture plate. On the next day after plating, CB12-II at 50 μM, USP at 50 μM, and TNF-α at 50 ng/ml were added to the culture media, and the culture was maintained for 24-48 hours. Conditioned media were collected and subjected to ELISA assay. The ELISA kits (BIOTRAK) for MMP-1 and MMP-13 were purchased from Amersham Pharmacia Biotech (Piscataway, N.J.). Measurement range was 6.25-100 ng/ml for MMP-1 and 0.094-3 ng/ml for MMP-13. Sensitivity for the assay was 1.7 ng/ml for MMP-1 and 0.7 ng/ml for MMP-13.
Protein levels of MMP-1 and MMP-13 were also tested by incubating isolated human chondrocytes for 48 hours in high density culture (10^6 cells/ml) with CB12-II, negative control peptide USP, or cytokine TNF-α, as discussed above. MMP-1 and MMP-13 secretion into medium from the cells was measured using ELISA (see FIGS. 9A and 9B).

[1] = system: isolated human chondrocytes; assay: Cell attachment assay (total cellular hexosaminidase); conditions: preliminary studies
Protocol: Ninety six-well, non-tissue culture plates were coated with a peptide fragment of the invention (CB12-II), a negative control peptide (USP), or human fibronectin in PBS at various concentrations overnight at room temperature in the laminar flow hood. […] Optimal binding was obtained with concentration of 10 μg/ml for CB12-II. After the plates were washed once with PBS, additional protein binding sites in the plate wells were blocked with 5% heat-denatured BSA in PBS at 37° […] for 1 hour. Freshly isolated human chondrocytes were recovered for 2 hours as described above, and then added to on substrate-coated plates at the density of 1×10^7 cells/ml (0.5-2×10^6 cells/well) and incubated at 37° C. for 1 hour. The chondrocyte suspensions were preincubated with 5 μg/ml anti-integrin blocking antibodies (from Chemicon): al (clone CB12), a2 (clone P1E6), a5, (clone DID6), α1 (clone 6S6), α2 (cloneP4H9), α3 (clone 25EW), α2β1 (clone BHA2.1), and α5β1 (clone JBS5) at 4° C. for 30 min prior to adding cells to the pre-coated wells for 1 hour at 37° C. Unattached cells were removed and the wells were washed gently twice with PBS. Bound cells were then quantitated by measuring total cellular hexosaminidase as described (36, 37). […] After a 6-h incubation, 90 μl of 50 mM glycine, 5 mM EDTA, pH 10.4 was added, and the absorbance was read at 405 nm.

[2] = system: bovine articular cartilage explant; assay: Collagenase-cleaved type II collagen (COL2-3/4C) in bovine articular cartilage explant culture; conditions: 1 and 10 μM, time- and dose-dependent
Protocol: The cartilages were prepared as previously described (Dahlberg, L. et al. (2000) supra. In brief, the cartilage samples were washed three times with basal culture medium containing Dulbecco's modified Eagle's medium (DMEM; Gibco BRL, Life Technologies, Grand Island, N.Y.) with 20 mM HEAPS buffer (pH 7.4) (Gibco BRL), 45 mM NaHCO3, 100 units/ml penicillin, 100 μg/ml streptomycin and 150 μg/ml gentamycin sulphate (Medium A). Full-depth cartilage slices from a single area, around 20 mm×20 mm were cut vertical to the articular surface and then into cubes of approximately 2 mm×2 mm (5-7 cubes were randomly obtained and wet weights about 50-70 mg/well determined).
The cartilage was assigned to 48 well plate (ca 40 mg/well) and kept in Medium A supplemented with 50 μg/ml ascorbic acid, 0.1 mg/bovine serum albumin, 50 μg/ml insulin, 5.0 μg/ml and 5.0 μg/ml sodium DMEM alone at 37° C. in 95% air/5% CO2. The cartilage was precultured for 2 days and medium was changed at day 0. Thereafter medium (as described in pellet cultures) was replaced every four days. Various CNBr fragments and/or synthetic peptides were freshly added from day 0 at each medium change. Thereafter, cartilage explants and conditioned media were harvested and stored at −20° C.
The cell pellets and cartilage explant cultured for various times were digested for the extraction of collagenase-generated neoepitope COL2-3/4Cshort (Billinghurst, R. C. et al., (1997) supra) and denatured type II collagen epitope COL2-3/4m and total type II collagen (Hollander, A. P. et al. (1994a) supra), as previously described: Briefly, the harvested pellets were incubated overnight with 1.0 mg/ml α-chymotrypsin at 37° C. to cleave and solubilize denatured collagen leaving the above neoepitope and epitope intact. After inhibition of α-chymotrypsin activity with N-tosyl-L-phenelalanine-chloromethyl ketone (Sigma), the samples were centrifuged and the supernatants were removed and boiled for 10 min. The COL2-3/4Cshort epitope (hereafter referred to as COL2-3/4Cshort) generated by cleavage of type II collagen by collagenase (Billinghurst, R. C. et al. (1997) supra) and intrachain epitope (COL2-3/4m) exposed in denatured type II collagen (Hollander, A. P. et al. (1994a) supra) were measured in α-chymotrypsin extracts by immunoassay. The COL2-3/4Cshort epitope is detected in an ELISA assay using a rabbit antibody to the carboxyterminal cleavage neoepitope on the TCA piece generated by primary collagenase cleavage of type II collagen. The release of the COL2-3/4C epitope into media was also measured by immunoassay. Total contents in tissue/cells and media was recorded for COL2-3/^4Cshort epitope. The COL2-3/4m epitope was recorded in cells and tissue where it was concentrated. The remaining residues of pellets and explants were digested overnight with 1.0 mg/ml proteinase K at 56° C. to extract the remaining intact type II collagen and then boiled for 10 min to denature the enzyme. Total type II collagen content in the pellets and explant was determined from the collective amount of COL2-3/4m in both the α-chymotrypsin and proteinase K digests.

induction of total collagenase cleavage of type II collagen by CB12 subpeptides [2]: most pronounced
Sequence: ERGPPGPQGARGFPGTPGLPGVK [CB12-II]
MMP-13 secretion into medium versus no peptide and negative control peptide (USP) (MMP-13): significantly higher
coating concentration giving optimal binding of chondrocytes [1]: 10 µg/mL
